Results: patent US8309299B2, “Combination therapy and method for assessing resistance to treatment” (Hoffmann-La Roche Inc., priority 2010, dated 2012)

Assays:
[1] = tested on: A549 vector control tumors; test: in vivo activity in A549 vector control xenograft model; set-up: species or system human; details: Example 5, 10 mg/kg once daily, after 21 days
Text: (§1) IL6 and IL8 lentiviruses were made using IL6 and IL8 plasmids (available from Genecopoeia, Rockville, Md., USA), respectively. A549 cells were divided into three groups with one group receiving a vector control, one group being infected with the IL6 lentivirus and the third group being infected with the IL8 lentivirus. The later two groups formed cell pools with stable expression of exogenous IL6 and IL8, respectively.
(§2) Cells from the aforementioned four groups and parental A549 and H460a cells were used to make xenograft models using the procedure described in Example 1. […]

[2] = tested on: A549 cells overexpressing IL8 (xenograft); test: in vivo activity in IL8-overexpressing A549 xenograft model; set-up: species or system human; details: Example 5, 10 mg/kg once daily, after 21 days
Text: as §1, §2

[3] = tested on: U87MG (glioblastoma) xenograft; test: in vivo activity in U87MG xenograft model; set-up: species or system human; details: U87MG xenograft in nude mice; 10 mg/kg once daily for 21 days
Experimental: (§3) The human cancer cell lines U87MG and LOX were purchased from the American Type Culture Collection. Xenografts were implanted in female nu/nu (nude) mice obtained from Charles River Laboratories (Wilmington, Mass.) (10 mice/group) when they were approximately 8 to 14 weeks old and weighed approximately 23 to 25 grams. All animal experiments were performed in accordance with protocols approved by the Roche Animal Care and Use Committee (RACUC). For xenograft implantation, cells were harvested using 0.05% trypsin, washed and centrifuged in culture medium, and resuspended in either a 1:1 mixture of phosphate buffered saline (PBS) and Matrigel (U87MG) or PBS alone (LOX) at a concentration of 1.5-5×10^7 cells per mL. A volume of 0.2 mL cell suspension (5×10^6 cells for U87MG, 2×10^6 cells for LOX) per mouse was implanted subcutaneously in the right flank. Tumors were allowed to grow for 8 to 26 days post implant when mean volume reached ˜100-150 mm^3, after which animals were randomized into treatment groups: U87MG xenograft mice receiving vehicle (Klucel and Tween) once daily, U87MG xenograft mice receiving Compound I at 10 mg/kg once daily for 21 days, LOX xenograft mice receiving vehicle (Klucel and Tween) once daily, and LOX xenograft mice receiving Compound I at 10 mg/kg once daily for 11 days.

[4] = tested on: Calu-6 (NSCLC) xenograft; test: in vivo activity in Calu-6 xenograft model; set-up: species or system human; details: Calu-6 (NSCLC) xenograft in nude mice; 60 mg/kg daily every other week for 4 weeks (7+/7- x 2 cycles) po; 21 days following commencement of treatment
Experimental: (§4) Female nu/nu (nude) mice obtained from Charles River Laboratories (Wilmington, Mass.) or female SCID-beige mice (Taconic, Germantown, N.Y.) were used (10 mice/group) when they were approximately 8 to 14 weeks old and weighed approximately 23 to 25 grams. All animal experiments were performed in accordance with protocols approved by the Roche Animal Care and Use Committee (RACUC).
(§5) The human cancer cell lines LOVO, BxPC3, HCT-116, A549, AsPC-1, MiaPaCa-2, and Calu-6 were purchased from the American Type Culture Collection. The H460a cell line was a gift from Dr. Jack Roth (M. D. Anderson Medical Center).
(§6) For xenograft implantation, cells were harvested using 0.05% trypsin, washed and centrifuged in culture medium, and resuspended in either a 1:1 mixture of phosphate buffered saline (PBS) and Matrigel (BxPC-3) or PBS alone (A549, H460a, LOVO, Calu-6, HCT-116, MiaPaca-2, and AsPC-1) at a concentration of 1.5-5×10^7 cells per mL. […]
(§7) Tumor measurements and mouse weights were taken twice per week. Statistical analysis was determined by Mann-Whitney Rank Sum Test, 1-way ANOVA, and post hoc Bonferroni t-test (SigmaStat, version 2.0, Jandel Scientific, San Francisco, Calif.). […]
(§8) Tumor growth inhibition (TGI %) was measured 21 days following the commencement of the treatment.

[5] = tested on: AsPC-1 (pancreatic) xenograft; test: in vivo activity in AsPC-1 xenograft model; set-up: species or system human; details: AsPC-1 (pancreatic) xenograft in nude mice; 10 mg/kg daily po; 21 days following commencement of treatment
Experimental: as §4, §5, §6, §7, §8

[6] = tested on: Hes1 mRNA; test: downregulation of Hes1 mRNA following in vitro treatment (Notch signaling blockage); assay type: cell-based, human
Text: Expression of IL6 and IL8 was then quantified in the BxPC3, HCT-116, A549, AsPC-1, MiaPaCa-2, and Calu-6 cell lines by measuring the level of mRNA using qRT-PCR. RNA isolation, and reverse transcription-PCR (RT-PCR) were done using standard laboratory techniques. The catalogue numbers for each probe set were Hes1 (Hs00172878_ml), ACTB (4333762F), IL6 (Hs00174131_ml), IL8 (Hs00174103_ml) and 18S (4319413E).

[7] = tested on: LOVO (colon) xenograft; test: in vivo activity in LOVO xenograft model; set-up: species or system human; details: LOVO (colon) xenograft in nude mice; 10 mg/kg daily po; 21 days following commencement of treatment
Experimental: as §4, §5, §6, §7, §8

[8] = tested on: IL8-knockdown H460a xenograft; test: in vivo activity in IL8-knockdown H460a xenograft model; set-up: species or system human; details: Example 6; IL8-knockdown H460a tumors; 10 mg/kg once daily for 21 days
Text: Lentiviruses were made using pLKO.1-based anti-IL8 shRNA (purchased from Open Biosystems) and used to stably knockdown IL8 expression in H460a cells. […] IL8-knockdown H460a cells, however, still had more than 2-fold higher IL8 levels compared to A549 cells.
Parental H460a cells and IL8-knockdown H460a cells were then implanted as xenografts in mice using the procedures described in Example 1. The mice were then randomized into different treatment groups (10 mice/group): H460a xenograft mice receiving vehicle once daily, H460a xenograft mice receiving Compound I at 10 mg/kg once daily, IL8-knockdown H460a xenograft mice receiving vehicle once daily, and IL8-knockdown H460a xenograft mice receiving Compound I at 10 mg/kg once daily.

[9] = tested on: 1:1 mixture of A549 overexpressing IL6 or IL8 (xenograft); test: in vivo activity in xenograft of 1:1 mixture of IL6- and IL8-overexpressing A549 cells; set-up: species or system human; details: Example 5; tumors from 1:1 mixture of A549 overexpressing IL6 or IL8; 10 mg/kg once daily; after 21 days
Text: as §1
A portion of the IL6 overexpressing A549 cells and the IL8 overexpressing A549 cells were then combined to form a fourth group containing a 1:1 mixture of such cells.
as §2

[10] = tested on: A549 (NSCLC) xenograft; test: in vivo activity in A549 xenograft model; set-up: species or system human
Experimental: as §4, §5, §6, §7
Tumor growth inhibition (TGI %) was measured 21 days following the commencement of the treatment. […]

[11] = tested on: BxPC3 (pancreatic) xenograft; test: in vivo activity in BxPC3 xenograft model; set-up: species or system human; details: BxPC3 (pancreatic) xenograft in SCID-beige mice; 10 mg/kg daily po; 21 days following commencement of treatment
Experimental: as §4, §5, §6, §7, §8

[12] = tested on: H460a (NSCLC) xenograft; test: in vivo activity in H460a xenograft model; set-up: species or system human
Experimental: as §4, §5
For xenograft implantation, cells were harvested using 0.05% trypsin, washed and centrifuged in culture medium, and resuspended in either a 1:1 mixture of phosphate buffered saline (PBS) and Matrigel (BxPC-3) or PBS alone (A549, H460a, LOVO, Calu-6, HCT-116, MiaPaca-2, and AsPC-1) at a concentration of 1.5-5×10^7 cells per mL. A volume of 0.2 mL cell suspension (7.5×10^6 cells for A549, 1×10^7 cells for H460a, 3×10^6 cells for Calu-6 and HCT116, 5×10^6 cells for BxPC3 and AsPC-1, 6×10^6 cells for MiaPaca-2, and 5×10^6 for LOVO) per mouse was implanted subcutaneously in the right flank. All xenograft models were implanted into nude mice with the exception of BxPC3, which was implanted into SCID-beige mice. Tumors were allowed to grow for 8 to 26 days post implant when mean volume reached ˜100-150 mm^3, after which animals were randomized into treatment groups.
Compound I (synthesized according to the procedure described in WO2005/023772) was formulated as a suspension in 1.0% Klucel in water with 0.2% Tween®-80 for oral (po) administration. Formulated compound and vehicle were prepared weekly and stored at 4° C. In the Calu-6 xenograft model, Compound I was dosed at 60 mg/kg daily every other week for 4 weeks (7+/7−×2 cycles). All other xenograft models were dosed with Compound I at 10 mg/kg daily.
Tumor measurements and mouse weights were taken twice per week. Statistical analysis was determined by Mann-Whitney Rank Sum Test, 1-way ANOVA, and post hoc Bonferroni t-test (SigmaStat, version 2.0, Jandel Scientific, San Francisco, Calif.). Differences between groups were considered significant when the probability value (p) was ≦0.05.
as §8, §2

[13] = tested on: A549 cells overexpressing IL6 (xenograft); test: in vivo activity in IL6-overexpressing A549 xenograft model; set-up: species or system human; details: Example 5, 10 mg/kg once daily, after 21 days
Text: as §1, §2

[14] = tested on: genes associated with angiogenesis; details: Luistro et al., Cancer Research 69:7672-80 (2009), cited from earlier work
[15] = tested on: MiaPaCa-2 (pancreatic) xenograft; test: in vivo activity in MiaPaCa-2 xenograft model; set-up: species or system human; details: MiaPaCa-2 (pancreatic) xenograft in nude mice; 10 mg/kg daily po; 21 days following commencement of treatment
Experimental: as §4, §5, §6, §7, §8

[16] = tested on: LOX (melanoma) xenograft; test: in vivo activity in LOX xenograft model; set-up: species or system human; details: LOX xenograft in nude mice; 10 mg/kg once daily for 11 days
Experimental: as §3

[17] = tested on: HCT-116 (colon) xenograft; test: in vivo activity in HCT-116 xenograft model; set-up: species or system human; details: HCT-116 (colon) xenograft in nude mice; 10 mg/kg daily po; 21 days following commencement of treatment
Experimental: as §4, §5, §6, §7, §8

[18] = tested on: H460a, A549 parental, A549 control, A549 IL6, A549 IL8 and 1:1 mixture xenograft models; test: Taxol positive drug control across the xenograft models of Example 5; assay type: in vivo, human; details: 30 mg/kg, all xenograft models of FIG. 5
Text: as §2

CC(C)(C(=O)NCC(F)(F)C(F)(F)F)C(=O)N[C@@H]1C(=O)Nc2ccccc2-c2ccccc21 [Compound I, 2,2-dimethyl-N-((S)-6-oxo-6,7-dihydro-5H-dibenzo[b,d]azepin-7-yl)-N′-(2,2,3,3,3-pentafluoro-propyl)-malonamide]
TGI [1]: 61% | TGI [2]: 45% | TGI [3]: −17% | TGI % [4]: 42% | TGI % [5]: 58% | downregulation of Hes1 mRNA ([6]; A549 overexpressing IL6): properly maintained | downregulation of Hes1 mRNA ([6]; A549 overexpressing IL8): properly maintained | downregulation of Hes1 mRNA ([6]; LOX cells): properly maintained | downregulation of Hes1 mRNA ([6]; U87MG cells): properly maintained | TGI % [7]: 83% | TGI [8]: 24% | TGI [9]: 8% | TGI % ([10]; A549 (NSCLC) xenograft in nude mice, 10 mg/kg daily po, 21 days following commencement of treatment): 70% | TGI ([10]; Example 5, parental A549 tumors, 10 mg/kg once daily, after 21 days): 71% | TGI % [11]: 82% | TGI ([12]; Example 5, H460a xenograft (high IL6 and IL8), 10 mg/kg once daily, after 21 days): 9% | TGI ([12]; Example 6, parental H460a tumors, 10 mg/kg once daily for 21 days): 5% | TGI ([12]; Example 7, H460a xenograft, Compound I 10 mg/kg once daily, anti-IL8 antibody 20 mg/kg twice weekly): 10% | TGI ([12]; Example 8, H460a xenograft, Compound I 10 mg/kg once daily, anti-IL6 antibody 20 mg/kg twice weekly): 43% | TGI % ([12]; H460a (NSCLC) xenograft in nude mice, 10 mg/kg daily po, 21 days following commencement of treatment (Example 1)): 8% | TGI [13]: 32% | change in the angiogenic gene profile ([14]; H460a xenograft): little change | expression of genes associated with angiogenesis ([14]; treated xenografts): reduced expression | TGI % [15]: 53% | TGI [16]: 15% | TGI % [17]: 76%

CC(=O)O[C@H]1C(=O)[C@@]2(C)[C@H]([C@H](OC(=O)c3ccccc3)[C@]3(O)C[C@H](OC(=O)[C@H](O)[C@@H](NC(=O)c4ccccc4)c4ccccc4)C(C)=C1C3(C)C)[C@]1(OC(C)=O)CO[C@@H]1C[C@@H]2O [Taxol®]
TGI (positive drug control) [18]: consistent TGI across the various models
